The source of these data is US20250163104A1, “MACROCYCLIC IMMUNOMODULATORS” (priority 2021, published 2025).

What is called IC50 is the concentration that inhibits the measured activity by half.

Each structure is given as a SMILES string. Where a SMILES comes first, the peptide text is derived from it. Bridges are numbered along the chain shown (N, C = ends). [ ]: non-standard residue; d: D form. The star is where a group is joined. Phe(4-COOH) = N[C@@H](Cc1ccc(C(=O)O)cc1)C(=O)O; Bip = N[C@@H](Cc1ccc(-c2ccccc2)cc1)C(=O)O; Phe(3-F) = N[C@@H](Cc1cccc(F)c1)C(=O)O; Phe(3-Me) = Cc1cccc(C[C@H](N)C(=O)O)c1; aIle = CC[C@@H](C)[C@H](N)C(=O)O; Cit = NC(=O)NCCC[C@H](N)C(=O)O; Carboxymethyl = O=C(O)C*; Orn = NCCC[C@H](N)C(=O)O; Dab = NCC[C@H](N)C(=O)O; Dap = NC[C@H](N)C(=O)O

The target of the first experiment is T1, human PD-1 / PD-L1-Ig binding on Jurkat cell line over-expressing human PD-1 (Jurkat-PD-1) (Homo sapiens, UniProt Q15116).
T1 construct: expressed in transfected cells; host or cells: Jurkat
T1 sequence (Q15116 25-288): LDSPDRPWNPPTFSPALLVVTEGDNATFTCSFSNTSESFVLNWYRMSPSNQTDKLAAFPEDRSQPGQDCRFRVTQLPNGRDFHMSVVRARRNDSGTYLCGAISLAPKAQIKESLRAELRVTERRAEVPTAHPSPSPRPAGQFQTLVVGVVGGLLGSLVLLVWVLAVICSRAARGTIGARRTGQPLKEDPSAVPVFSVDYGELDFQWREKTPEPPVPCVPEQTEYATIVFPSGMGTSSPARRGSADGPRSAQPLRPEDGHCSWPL
Put plainly: Jurkat-PD-1 Cell Binding High-Content Screening Assay (CBA). The experiment is classed as cell-based. The conditions noted are these: Jurkat HPD1_PDL1 IC50, Jurkat-PD-1 cells, PE-labeled PD-L1-Ig 20 nM final. A digest of the protocol: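 Cell-bound PE-labeled PD-L1-Ig (20 nM final, 1 h) measured by high-content imaging after fixation and Hoechst 33342 counterstain. Compound was applied first for 2 h at 37° C. to Jurkat cells over-expressing human PD-1 in DMEM with 10% FCS.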
As to `CC(C)C[C@H]1NC(=O)[C@H](CCCN)NC(=O)[C@H](CCCNC(N)=O)NC(=O)[C@H](Cc2ccc(-c3ccccc3)cc2)NC(=O)[C@H](C(C)C)NC(=O)[C@H](Cc2c[nH]c3ccccc23)NC(=O)[C@H](CC(=O)O)NC(=O)[C@H](Cc2ccc(C(=O)O)cc2)NC(=O)[C@H](Cc2ccc(OCC(=O)O)cc2)NC(=O)CSC[C@@H](C(=O)N[C@@H](C)C(N)=O)NC(=O)[C@H]([C@@H](C)O)NC(=O)[C@H](C(C)C)NC(=O)[C@H](Cc2ccccc2)NC(=O)[C@H](CCN)NC1=O` [Compound 1664] ({CH2CO}-Y(Carboxymethyl)[Phe(4-COOH)]DWV[Bip][Cit][Orn][dL][Dab]FVTCA-NH2; thioether N-14), the half-maximal inhibitory concentration (IC50) is 36.3 nM.

Staying with this experiment, now noted: Jurkat-PD-1 cells, PE-labeled PD-L1-Ig 20 nM final; read-out: Jurkat HPD1_PDL1 IC50.
For the compound `Cc1cccc(C[C@@H]2NC(=O)[C@H](CC(=O)O)NC(=O)[C@H](Cc3ccc(OCC(=O)O)cc3)NC(=O)[C@H](Cc3ccc(OCC(=O)O)cc3)NC(=O)CSC[C@@H](C(N)=O)NC(=O)[C@H](CO)NC(=O)[C@H](C(C)C)NC(=O)[C@H](CC(C)C)NC(=O)[C@H](CCN)NC(=O)[C@@H](CC(C)C)NC(=O)[C@H](CCCN)NC(=O)[C@H](CCCNC(N)=O)NC(=O)[C@H](Cc3ccc(-c4ccccc4)cc3)NC(=O)[C@H](CC(C)C)NC2=O)c1` [Compound 1656] ({CH2CO}-Y(Carboxymethyl)Y(Carboxymethyl)D[Phe(3-Me)]L[Bip][Cit][Orn][dL][Dab]LVSC-NH2; thioether N-14), the IC50 is 36.4 nM.

For `CC[C@@H](C)[C@@H]1NC(=O)[C@H](Cc2ccc(-c3ccccc3)cc2)NC(=O)[C@H](C(C)C)NC(=O)[C@H](Cc2cccc(C)c2)NC(=O)[C@H](CC(=O)O)NC(=O)[C@H](Cc2ccc(O)cc2)NC(=O)[C@H](CC(N)=O)NC(=O)CSC[C@@H](C(N)=O)NC(=O)[C@H]([C@@H](C)O)NC(=O)[C@H](C(C)C)NC(=O)[C@H](CC(C)C)NC(=O)[C@H](CCN)NC(=O)[C@@H](CC(C)C)NC(=O)[C@H](CCCN)NC1=O` [Compound 1657] ({CH2CO}-NYD[Phe(3-Me)]V[Bip][aIle][Orn][dL][Dab]LVTC-NH2; thioether N-14), the half-maximal inhibitory concentration (IC50) came to 59.9 nM.

As for `CC[C@H](C)[C@@H]1NC(=O)[C@H](Cc2ccc(-c3ccccc3)cc2)NC(=O)[C@H](C(C)C)NC(=O)[C@H](Cc2c[nH]c3ccccc23)NC(=O)[C@H](CC(=O)O)NC(=O)[C@H](Cc2ccc(OCC(=O)O)cc2)NC(=O)[C@H](CN)NC(=O)CSC[C@@H](C(=O)N[C@@H](C)C(N)=O)NC(=O)[C@H]([C@@H](C)O)NC(=O)[C@H](C(C)C)NC(=O)[C@H](Cc2ccccc2)NC(=O)[C@H](CCN)NC(=O)[C@@H](CC(C)C)NC(=O)[C@H](CCCN)NC1=O` [Compound 1658] ({CH2CO}-[Dap]Y(Carboxymethyl)DWV[Bip]I[Orn][dL][Dab]FVTCA-NH2; thioether N-14), the IC50 turned out to be 19.5 nM.

In the case of `CC[C@H](C)[C@@H]1NC(=O)[C@H](Cc2ccc(-c3ccccc3)cc2)NC(=O)[C@H](C(C)C)NC(=O)[C@H](Cc2c[nH]c3ccccc23)NC(=O)[C@H](CC(=O)O)NC(=O)[C@H](Cc2ccc(C(=O)O)cc2)NC(=O)[C@H](Cc2ccc(OCC(=O)O)cc2)NC(=O)CSC[C@@H](C(=O)N[C@@H](C)C(N)=O)NC(=O)[C@H]([C@@H](C)O)NC(=O)[C@H](C(C)C)NC(=O)[C@H](Cc2ccccc2)NC(=O)[C@H](CCN)NC(=O)[C@@H](CC(C)C)NC(=O)[C@H](CCCN)NC1=O` [Compound 1659] ({CH2CO}-Y(Carboxymethyl)[Phe(4-COOH)]DWV[Bip]I[Orn][dL][Dab]FVTCA-NH2; thioether N-14), the IC50 was 9.1 nM.

Turning to `CC[C@H](C)[C@@H]1NC(=O)[C@H](Cc2ccc(-c3ccccc3)cc2)NC(=O)[C@H](C(C)C)NC(=O)[C@H](Cc2c[nH]c3ccccc23)NC(=O)[C@H](CC(=O)O)NC(=O)[C@H](Cc2ccc(OCC(=O)O)cc2)NC(=O)[C@H](Cc2ccc(OCC(=O)O)cc2)NC(=O)CSC[C@@H](C(=O)N[C@@H](C)C(N)=O)NC(=O)[C@H]([C@@H](C)O)NC(=O)[C@H](C(C)C)NC(=O)[C@H](Cc2ccccc2)NC(=O)[C@H](CCN)NC(=O)[C@@H](CC(C)C)NC(=O)[C@H](CCCN)NC1=O` [Compound 1660] ({CH2CO}-Y(Carboxymethyl)Y(Carboxymethyl)DWV[Bip]I[Orn][dL][Dab]FVTCA-NH2; thioether N-14), the IC50 is 20.6 nM.

Regarding `CC(C)C[C@H]1NC(=O)[C@H](CCCN)NC(=O)[C@H](C(C)C)NC(=O)[C@H](Cc2ccc(-c3ccccc3)cc2)NC(=O)[C@H](C(C)C)NC(=O)[C@H](Cc2c[nH]c3ccccc23)NC(=O)[C@H](CC(=O)O)NC(=O)[C@H](Cc2ccc(OCC(=O)O)cc2)NC(=O)[C@H](CN)NC(=O)CSC[C@@H](C(=O)N[C@@H](C)C(N)=O)NC(=O)[C@H]([C@@H](C)O)NC(=O)[C@H](C(C)C)NC(=O)[C@H](Cc2ccccc2)NC(=O)[C@H](CCN)NC1=O` [Compound 1661] ({CH2CO}-[Dap]Y(Carboxymethyl)DWV[Bip]V[Orn][dL][Dab]FVTCA-NH2; thioether N-14), the IC50 is 17 nM.

With `CC(C)C[C@H]1NC(=O)[C@H](CCCN)NC(=O)[C@H](C(C)C)NC(=O)[C@H](Cc2ccc(-c3ccccc3)cc2)NC(=O)[C@H](C(C)C)NC(=O)[C@H](Cc2c[nH]c3ccccc23)NC(=O)[C@H](CC(=O)O)NC(=O)[C@H](Cc2ccc(C(=O)O)cc2)NC(=O)[C@H](Cc2ccc(OCC(=O)O)cc2)NC(=O)CSC[C@@H](C(=O)N[C@@H](C)C(N)=O)NC(=O)[C@H]([C@@H](C)O)NC(=O)[C@H](C(C)C)NC(=O)[C@H](Cc2ccccc2)NC(=O)[C@H](CCN)NC1=O` [Compound 1662] ({CH2CO}-Y(Carboxymethyl)[Phe(4-COOH)]DWV[Bip]V[Orn][dL][Dab]FVTCA-NH2; thioether N-14), the IC50 amounted to 27.4 nM.

As to `CC(C)C[C@H]1NC(=O)[C@H](CCCN)NC(=O)[C@H](C(C)C)NC(=O)[C@H](Cc2ccc(-c3ccccc3)cc2)NC(=O)[C@H](C(C)C)NC(=O)[C@H](Cc2c[nH]c3ccccc23)NC(=O)[C@H](CC(=O)O)NC(=O)[C@H](Cc2ccc(OCC(=O)O)cc2)NC(=O)[C@H](Cc2ccc(OCC(=O)O)cc2)NC(=O)CSC[C@@H](C(=O)N[C@@H](C)C(N)=O)NC(=O)[C@H]([C@@H](C)O)NC(=O)[C@H](C(C)C)NC(=O)[C@H](Cc2ccccc2)NC(=O)[C@H](CCN)NC1=O` [Compound 1663] ({CH2CO}-Y(Carboxymethyl)Y(Carboxymethyl)DWV[Bip]V[Orn][dL][Dab]FVTCA-NH2; thioether N-14), the IC50 was 11.1 nM.

For the compound `CC(C)C[C@H]1NC(=O)[C@H](CCCN)NC(=O)[C@H](CCCNC(N)=O)NC(=O)[C@H](Cc2ccc(-c3ccccc3)cc2)NC(=O)[C@H](C(C)C)NC(=O)[C@H](Cc2c[nH]c3ccccc23)NC(=O)[C@H](CC(=O)O)NC(=O)[C@H](Cc2ccc(OCC(=O)O)cc2)NC(=O)[C@H](Cc2ccc(OCC(=O)O)cc2)NC(=O)CSC[C@@H](C(=O)N[C@@H](C)C(N)=O)NC(=O)[C@H]([C@@H](C)O)NC(=O)[C@H](C(C)C)NC(=O)[C@H](Cc2ccccc2)NC(=O)[C@H](CCN)NC1=O` [Compound 1665] ({CH2CO}-Y(Carboxymethyl)Y(Carboxymethyl)DWV[Bip][Cit][Orn][dL][Dab]FVTCA-NH2; thioether N-14), the half-inhibitory concentration (IC50) is 17 nM.

Consider `CC(C)C[C@H]1NC(=O)[C@H](CCCN)NC(=O)[C@H](CCC(=O)O)NC(=O)[C@H](Cc2ccc(-c3ccccc3)cc2)NC(=O)[C@H](C(C)C)NC(=O)[C@H](Cc2c[nH]c3ccccc23)NC(=O)[C@H](CC(=O)O)NC(=O)[C@H](Cc2ccc(OCC(=O)O)cc2)NC(=O)[C@H](CN)NC(=O)CSC[C@@H](C(=O)N[C@@H](C)C(N)=O)NC(=O)[C@H]([C@@H](C)O)NC(=O)[C@H](C(C)C)NC(=O)[C@H](Cc2ccccc2)NC(=O)[C@H](CCN)NC1=O` [Compound 1666] ({CH2CO}-[Dap]Y(Carboxymethyl)DWV[Bip]E[Orn][dL][Dab]FVTCA-NH2; thioether N-14), for which the IC50 came to 17.3 nM.

Regarding `CC(C)C[C@H]1NC(=O)[C@H](CCCN)NC(=O)[C@H](CCC(=O)O)NC(=O)[C@H](Cc2ccc(-c3ccccc3)cc2)NC(=O)[C@H](C(C)C)NC(=O)[C@H](Cc2c[nH]c3ccccc23)NC(=O)[C@H](CC(=O)O)NC(=O)[C@H](Cc2ccc(C(=O)O)cc2)NC(=O)[C@H](Cc2ccc(OCC(=O)O)cc2)NC(=O)CSC[C@@H](C(=O)N[C@@H](C)C(N)=O)NC(=O)[C@H]([C@@H](C)O)NC(=O)[C@H](C(C)C)NC(=O)[C@H](Cc2ccccc2)NC(=O)[C@H](CCN)NC1=O` [Compound 1667] ({CH2CO}-Y(Carboxymethyl)[Phe(4-COOH)]DWV[Bip]E[Orn][dL][Dab]FVTCA-NH2; thioether N-14), the IC50 stood at 30 nM.

Regarding `CC(C)C[C@H]1NC(=O)[C@H](CCCN)NC(=O)[C@H](CCC(=O)O)NC(=O)[C@H](Cc2ccc(-c3ccccc3)cc2)NC(=O)[C@H](C(C)C)NC(=O)[C@H](Cc2c[nH]c3ccccc23)NC(=O)[C@H](CC(=O)O)NC(=O)[C@H](Cc2ccc(OCC(=O)O)cc2)NC(=O)[C@H](Cc2ccc(OCC(=O)O)cc2)NC(=O)CSC[C@@H](C(=O)N[C@@H](C)C(N)=O)NC(=O)[C@H]([C@@H](C)O)NC(=O)[C@H](C(C)C)NC(=O)[C@H](Cc2ccccc2)NC(=O)[C@H](CCN)NC1=O` [Compound 1668] ({CH2CO}-Y(Carboxymethyl)Y(Carboxymethyl)DWV[Bip]E[Orn][dL][Dab]FVTCA-NH2; thioether N-14), the IC50 stood at 48.7 nM.

`CC[C@H](C)[C@@H]1NC(=O)[C@H](Cc2ccc(-c3ccccc3)cc2)NC(=O)[C@H](C(C)C)NC(=O)[C@H](Cc2c[nH]c3ccccc23)NC(=O)[C@H](CC(=O)O)NC(=O)[C@H](Cc2ccc(OCC(=O)O)cc2)NC(=O)[C@H](CN)NC(=O)CSC[C@@H](C(=O)N[C@@H](C)C(N)=O)NC(=O)[C@H]([C@@H](C)O)NC(=O)[C@H](C(C)C)NC(=O)[C@H](Cc2cccc(F)c2)NC(=O)[C@H](CCN)NC(=O)[C@@H](CC(C)C)NC(=O)[C@H](CCCN)NC1=O` [Compound 1669] ({CH2CO}-[Dap]Y(Carboxymethyl)DWV[Bip]I[Orn][dL][Dab][Phe(3-F)]VTCA-NH2; thioether N-14): the IC50 was 23.5 nM.
